In patent US8951972B2, “FGFR1 extracellular domain combination therapies for lung cancer” (Five Prime Therapeutics, Inc., priority 2010, dated 2015):

Columns and labels:
[1] = system: A549 Non-Small Cell Lung Cancer (NSCLC) Xenograft; assay: A549 non-small cell lung cancer (NSCLC) xenograft model, tumor volume; format: in vivo, SCID mice
Protocol: Six weeks old female SCID mice were purchased from Charles River Laboratories (Wilmington, Mass.) and were acclimated for 1 week before the start of the study. […] The cells were implanted subcutaneously over the right flank of the mice at 5×10^6 cells/100 μl/mouse. One day after tumor implantation, mice were randomized according to body weight at 10 mice per group.
The tumor volume and body weight of the mice were monitored twice a week throughout each study.
The tumor volume of each group of mice at the end of each study was analyzed by one-way ANOVA followed by Tukey's test.
Cisplatin was purchased from Sigma-Aldrich (St. Louis, Mo.; Cat. No. P4394), formulated in 0.9% saline, and administered i.p. at 3.5 mg/kg ([…]) once per week for six weeks. Saline was used as negative control and was administered i.p. at 100 μl per mouse twice a week for six weeks.
On day 42, when the average tumor volume in the vehicle group reached 1300 mm^3, the mice were euthanized by isoflurane inhalation and cervical dislocation.
FGFR1-ECD.339-Fc was formulated in 0.9% Saline for Injection USP at 3 mg/ml. […] FGFR1-ECD.339-Fc was administered intraperitoneally (i.p.) at 15 mg/kg twice per week for 5 weeks. Paclitaxel was administered i.p. at 18 mg/kg on days 8, 12, and 15.
When the average tumor volume in vehicle control group reached ˜500 mm^3, the mice were euthanized by isoflurane inhalation and cervical dislocation.
FGFR1-ECD.339-Fc was formulated in 0.9% Saline for Injection USP at 3 mg/ml. 5-FU was purchased from Sigma-Aldrich (St. Louis, Mo.; Cat. No. F6627) and was initially dissolved in dimethyl sulfoxide (DMSO, Sigma-Aldrich, St. Louis, Mo.; Cat. No. D8418-50) at the concentration of 50 mg/ml as a stock solution. The stock solution was further diluted in 0.9% Sodium Chloride Injection USP to 6.6 mg/ml (for 33 mg/kg dosing). FGFR1-ECD.339-Fc was administered intraperitoneally (i.p.) at 15 mg/kg twice per week for four weeks. 5-FU was administered i.p. at 33 mg/kg twice a week for three weeks.
Mice were euthanized on day 31 by isoflurane inhalation and cervical dislocation.
FGFR1-ECD.339-Fc was formulated in PBS at 3 mg/ml and administered intraperitoneally (i.p.) at 15 mg/kg (300 μg/100 μl/mouse) twice a week for four weeks. Docetaxel was administered i.p. at 3 mg/kg or 10 mg/kg twice per week for four weeks.
Mice in the albumin control group were euthanized on day 32 by isoflurane inhalation and cervical dislocation when the average tumor volume in the group reached 1000 mm^3.

[2] = system: Colo205 Colon Cancer Xenograft; assay: Colo205 colon cancer xenograft model, tumor volume; format: in vivo, SCID mice
Protocol: Cells were resuspended in a solution of 50%/v PBS and 50%/v Matrigel at a concentration of 25 million cells/ml. Resuspended cells were kept on ice until implantation. […] On day 0, 2.5 million cells/100 μl were implanted over the right flank of the each mouse using a 27G1/2 needle. One day after tumor implantation, the mice were randomized according to the body weight.
Leucovorin (LV) was also purchased from Sigma-Aldrich (Cat. No. F8259) and was formulated in 0.9% Sodium Chloride Injection USP at 2 mg/ml (for 10 mg/kg dosing), to 4 mg/ml (for 20 mg/kg dosing), and to 6 mg/ml (for 30 mg/kg dosing).
In the first experiment, FGFR1-ECD.339-Fc was combined with three different concentrations of 5-FU/leucovorin. In the second experiment, FGFR1-ECD.339-Fc was combined with either bevacizumab or 5-FU/leucovorin, or both. The double line separates the groups from the two experiments.
When the average tumor volume in a group was near 600 mm^3, the mice in that group were euthanized by isoflurane inhalation and cervical dislocation.
The order of effectiveness of the various treatments was evaluated two ways: 1) the average tumor volume in each group on a single time point (day); and 2) time for the average tumor volume in each group to reach 500 mm^3 (see the dotted line in FIG. 11E).
Leucovorin was also purchased from Sigma-Aldrich (Cat. No. F8259) and was formulated in 0.9% Sodium Chloride Injection USP at 2 mg/ml (for 10 mg/kg dosing).
5-FU and leucovorin were each administered i.p. at 10 mg/kg daily for five days. Oxaliplatin was administered i.p. at 5 mg/kg, 10 mg/kg, or 15 mg/kg in one dose on day 1.
Mice were euthanized on day 28 by isoflurane inhalation and cervical dislocation.

[3] = Body weight of the mice in the xenograft studies; format: in vivo; conditions: for Body weight (weight loss): A549 study; for Body weight / tolerability: 250 mg/kg
[4] = system: H520 Non-Small Cell Lung Cancer (NSCLC) Xenograft; assay: H520 non-small cell lung cancer (NSCLC) xenograft model, tumor volume; format: in vivo, SCID mice
Protocol: Dosing for all groups began one day post tumor implantation.
In combination groups, FGFR1-ECD.339-Fc and pemetrexed were administered on the same schedule as when given as single agents, and were administered concurrently on days 1, 4, 8, and 11.

[5] = day 42, FGFR1-ECD.339-Fc 20 mg/kg i.p. 2x/wk x 6 wks, cisplatin 3.5 mg/kg i.p. 1x/wk x 6 wks
[6] = day 24, FGFR1-ECD.339-Fc 15 mg/kg i.p. 3x/wk x 4 wks, bevacizumab 1 mg/kg i.p. 2x/wk x 4 wks, 5-Fu/LV 10 mg/kg each i.p. q.d. x 5 days

N.N.[Cl][Pt][Cl] [Cisplatin, (SP-4-2)-diamminedichloridoplatinum, reference compound]
Mean Tumor volume mm^3(±SD) [1, 5]: 682 (±195) mm^3
Tumor growth inhibition (%) [1, 5]: 49%
Fractional tumor volume (FTV) relative to control, each treatment alone ([1]; day 42, FGFR1-ECD.339-Fc 20 mg/kg, cisplatin 3.5 mg/kg): 0.5

O=c1[nH]cc(F)c(=O)[nH]1 [5-FU, 5-fluoro-1H-pyrimidine-2,4-dione, reference compound]
Fractional tumor volume (FTV), each treatment alone ([1]; day 31, FGFR1-ECD.339-Fc 15 mg/kg i.p. 2x/wk x 4 wks, 5-FU 33 mg/kg i.p. 2x/wk x 3 wks): 1.04

Bevacizumab: recombinant humanized anti-VEGF monoclonal antibody [reference compound]
Fractional tumor volume (FTV), each treatment alone ([2]; Day 24, FGFR1-ECD.339-Fc 15 mg/kg i.p. 3x/wk x 4 wks, bevacizumab 1 mg/kg i.p. 2x/wk x 4 wks, 5-Fu/LV 10 mg/kg each q.d. x 5 days): 0.58
Order of antitumor effect of the treatment groups ([2]; by average tumor volume on a single day and by time for average tumor volume to reach 500 mm^3 (FIG. 11E), value gives the next-ranked group): >FGFR1-ECD.339-Fc
Mean Tumor volume mm^3(±SD) [2, 6]: 405 (±56) mm^3
Tumor growth inhibition (%) [2, 6]: 41%

CC[C@]1(O)C[C@H]2CN(CCc3c([nH]c4ccccc34)[C@@](C(=O)OC)(c3cc4c(cc3OC)N(C=O)[C@H]3[C@@](O)(C(=O)OC)[C@H](OC(C)=O)[C@]5(CC)C=CCN6CC[C@]43[C@@H]65)C2)C1 [Vincristine, methyl (1R,9R,10S,11R,12R,19R)-11-(acetyloxy)-12-ethyl-4-[(13S,15S,17S)-17-ethyl-17-hydroxy-13-(methoxycarbonyl)-1,11-diazatetracyclo[13.3.1.0^4,12.0^5,10]nonadeca-4(12),5,7,9-tetraen-13-yl]-8-formyl-10-hydroxy-5-methoxy-8,16-diazapentacyclo[10.6.1.0^1,9.0^2,7.0^16,19]nonadeca-2,4,6,13-tetraene-10-carboxylate, reference compound]
Fractional tumor volume (FTV), each treatment alone ([1]; day 39, FGFR1-ECD.339-Fc 15 mg/kg i.p. 2x/wk (start day 1), vincristine 1 mg/kg i.p. days 8, 15, 22): 0.53
Fractional tumor volume (FTV), each treatment alone ([1]; day 46, FGFR1-ECD.339-Fc 15 mg/kg i.p. 2x/wk (start day 1), vincristine 1 mg/kg i.p. days 8, 15, 22): 0.55
Fractional tumor volume (FTV), each treatment alone ([1]; day 70, FGFR1-ECD.339-Fc 20 mg/kg i.p. 2x/wk (start day 19), vincristine 1.5 mg/kg i.p. days 27, 34, 41): 0.41
Body weight (weight loss) ([3]; higher dose of vincristine (1.5 mg/kg i.p. days 27, 34, 41), FIG. 9C): lost weight
Body weight (weight loss) ([3]; lower dose of vincristine (1 mg/kg i.p. days 8, 15, 22), data not shown): did not lose weight

Nc1nc2[nH]cc(CCc3ccc(C(=O)N[C@@H](CCC(=O)O)C(=O)O)cc3)c2c(=O)[nH]1 [Pemetrexed, (S)-2-[4-[2-(4-amino-2-oxo-3,5,7-triazabicyclo[4.3.0]nona-3,8,10-trien-9-yl)ethyl]benzoyl]aminopentanedioic acid, reference compound]
Tumor inhibition over the course of the study (mean tumor volume) ([4]; FIG. 4A, highest dose of pemetrexed (250 mg/kg), alone or with FGFR1-ECD.339-Fc 15 mg/kg): did not appear to inhibit tumor growth
Tumor inhibition over the course of the study (mean tumor volume) ([4]; FIGS. 2A, 3A, 4A, FGFR1-ECD.339-Fc 15 mg/kg, pemetrexed alone at the low or medium dose (62.5 or 125 mg/kg), combination dosed concurrently): resulted in tumor inhibition
Body weight / tolerability ([3]; H520 study, high dose of pemetrexed, 250 mg/kg i.p. QD x 5, FIG. 4B): approaching the maximum tolerated dose
Body weight / tolerability ([3]; mouse, in vivo, ip): initially lost significant body weight

CC(=O)O[C@H]1C(=O)[C@@]2(C)[C@H]([C@H](OC(=O)c3ccccc3)[C@]3(O)C[C@H](OC(=O)[C@H](O)[C@@H](NC(=O)c4ccccc4)c4ccccc4)C(C)=C1C3(C)C)[C@]1(OC(C)=O)CO[C@@H]1C[C@@H]2O [Paclitaxel, (2α,4α,5β,7β,10β,13α)-4,10-bis(acetyloxy)-13-{[(2R,3S)-3-(benzoylamino)-2-hydroxy-3-phenylpropanoyl]oxy}-1,7-dihydroxy-9-oxo-5,20-epoxytax-11-en-2-yl benzoate, reference compound]
Fractional tumor volume (FTV), each treatment alone ([1]; day 31, FGFR1-ECD.339-Fc 15 mg/kg i.p. 2x/wk x 5 wks, paclitaxel 18 mg/kg i.p. days 8, 12, 15): 0.57
Fractional tumor volume (FTV), each treatment alone ([1]; day 38, FGFR1-ECD.339-Fc 15 mg/kg i.p. 2x/wk x 5 wks, paclitaxel 18 mg/kg i.p. days 8, 12, 15): 0.50
